Experimental data: patent US7972611B2, “Fungus-induced inflammation and eosinophil degranulation” (Mayo Foundation for Medical Education and Research, priority 2005, dated 2011)
Like-named read-outs stand apart in the source and are kept apart here.

Key:
PAR-2 = biological target: T1, PAR-2 (Homo sapiens, UniProt P55085); assay: Eosinophil calcium response to Alternaria extract after preincubation with PAR-2 peptides; assay type: cell-based; details: preincubation with peptide, 100 μM
T1 construct: endogenous in cells; host or cells: isolated human blood eosinophils
T1 sequence (P55085 26-397): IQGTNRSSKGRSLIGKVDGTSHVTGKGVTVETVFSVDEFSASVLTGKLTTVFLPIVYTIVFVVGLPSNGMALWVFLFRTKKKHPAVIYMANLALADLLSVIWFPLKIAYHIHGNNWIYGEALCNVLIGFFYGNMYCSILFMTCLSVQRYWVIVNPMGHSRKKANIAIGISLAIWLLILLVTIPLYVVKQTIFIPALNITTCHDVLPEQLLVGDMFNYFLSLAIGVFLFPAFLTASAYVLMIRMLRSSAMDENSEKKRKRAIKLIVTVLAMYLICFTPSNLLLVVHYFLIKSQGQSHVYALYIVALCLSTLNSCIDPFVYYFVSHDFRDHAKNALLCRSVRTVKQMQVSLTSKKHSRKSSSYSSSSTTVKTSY
Experimental: FIG. 8. Desensitization of eosinophil calcium response (Panel A) and EDN release (Panel B) by PAR-2 peptides. Cells were preincubated with PAR-2 agonist (SLIGKV; SEQ ID NO:38), PAR-2 antagonist (LSIGKV; SEQ ID NO:35) or control peptide (GLIVKS; SEQ ID NO:36) (all at 100 μM) before stimulation with Alternaria extract (Panel A) or with Alternaria extract, PAF or PMA (Panel B).
The majority of previous studies in anti-fungal immune responses used the following models: animal infection in in vivo systems (e.g., Candida albicans, Aspergillus fumigatus), or entire fungal hyphae or conidia (e.g., C. albicans, A. fumigatus), a yeast model (e.g., zymosan), and isolated fungal carbohydrate macromolecules (e.g., β-glucan, mannan) in in vitro systems. These studies pointed to roles for TLRs, in particular TLR2 and TLR4, and to other pattern recognition receptors that immune cells, such as macrophages and neutrophils, use to recognize fungi. Because eosinophils express little TLR2 or TLR4 and the active component(s) in Alternaria extract was a heat-labile molecule(s) with an approximate 30-50 kDa molecular mass (FIG. 6), it was speculated that an Alternaria-derived protease(s) (not carbohydrates), interacting with eosinophil PAR-2, may be involved in the eosinophils' responses to Alternaria. Sine no specific small molecule inhibitor for PAR-2 is available, a desensitization approach was used. […] In contrast, degranulation induced by PAF or PMA was not affected by the LSIGKV (SEQ ID NP:35) peptide. Thus, PAR-2 is likely involved in the eosinophils' calcium and degranulation responses to Alternaria extract.

BEAS-2B cells = assay: Cytokine production by BEAS-2B airway epithelial cells; assay type: cell-based, human
Experimental: FIG. 10. Effects of fungi on IL-6 production by BEAS-2B cells. BEAS-2B cells were incubated with culture extracts of various fungi for 24 hours. IL-6 concentrations in the supernatants were measured by ELISA. *, p<0.05 compared to medium alone, n=3.
FIG. 11. Effects of an aspartate protease inhibitor, ritonavir, on IL-8 production by BEAS-2B cells. Alternaria extract or TNF-α was pretreated with ritonavir and added to BEAS-2B cells. IL-8 concentrations in the supernatants were measured after 24 hours. Data are normalized to the values without ritonavir as 100%. *, p<0.05 compared to no inhibitor, n=4.
Eosinophils may be the only cell that can recognize Alternaria. […] BEAS-2B stimulated with Alternaria also produced other pro-inflammatory factors such as IL-8 and GM-CSF. This Alternaria-induced IL-6 production was inhibited by ATBI, nelfinavir, ritonavir or pepstatin A-agarose treatment of Alternaria extract by about 60% to 90%; ritonavir results are shown in FIG. 11. In contrast, TNF-α-induced IL-6 production was not affected by these treatments. […] Thus, through its aspartate protease activity, Alternaria may activate airway epithelial cells; this activation is partially mediated by PAR-2.

eosinophils = assay type: cell-based, human; details: for eosinophil degranulation (EDN release) induced by Alternaria extract: 3 hours at 37° C.
Experimental: FIG. 9. […] Alternaria extract, trypsin, or PMA was pretreated with pepstatin A agarose, control agarose, or APMSF, and added to the PAR-2 peptide substrate (Panel A) or eosinophils (Panel B).
(§1) To monitor eosinophil function in response to extracts from Alternaria, degranulation of human eosinophils was measured by quantitating released eosinophil-derived neurotoxin (EDN) and/or MBP. In brief, freshly isolated eosinophils were suspended in HBSS with 25 mM HEPES and 0.01% gelatin at 5×10^5 cells/mL. Eosinophils and stimuli were incubated in 96-well tissue culture plates for 3 hours at 37° C. and 5% CO^2. Cell-free supernatants were stored at −20° C. A specific RIA quantitated eosinophil degranulation by measuring the concentration of EDN in the supernatants.

patients with CRS [1] = assay: Open-label pilot trial of intranasal amphotericin B in CRS patients
Experimental: To examine the clinical significance of fungal colonization in CRS, two clinical trials were performed to examine the efficacy of anti-fungal agents. It was hypothesized that anti-fungal agents will reduce the fungal burden in the upper airways, resulting in less antigenic stimulation of immune cells, less airway inflammation, and improved clinical outcomes. […] This prospective, open-label trial used amphotericin B as a medical treatment in 51 randomly selected CRS patients. The antifungal was applied intranasally using 20 mL of a 100 μg/mL solution twice daily for a mean of 11 months (minimum of 3 months).

patients with CRS [2] = assay: Randomized, placebo-controlled, double-blind trial of intranasal amphotericin B in CRS patients; assay type: in vivo, human; details: 6 months
Experimental: Second, to address the efficacy of intranasal antifungal agents more objectively, a randomized, placebo-controlled, double-blind, single center trial was performed to treat 30 randomly selected CRS patients. Patients instilled 20 mL amphotericin B (250 μg/mL) or placebo to each nostril twice daily for 6 months. Twenty-four patients completed the 6 months of treatment. […] The changes in the endoscopic scores improved in the amphotericin B group compared to placebo (p=0.038). […] Some patients responded well to the treatment, but others not as well. Thus, fungi may be important in the development of CRS in certain patients.

trypsin = assay: Inhibition of trypsin cleavage of PAR-2 peptide substrate; assay type: biochemical
Excerpt: (§2) FIG. 9. Effects of protease inhibitors on PAR-2 cleavage activity (Panel A) and EDN release activity (Panel B) of Alternaria extract. Alternaria extract, trypsin, or PMA was pretreated with pepstatin A agarose, control agarose, or APMSF, and added to the PAR-2 peptide substrate (Panel A) or eosinophils (Panel B). In Panel B, *, p<0.05 compared to no inhibitors, n=4.
(§3) A fluorescent quenched peptide substrate (Abz-SKGRSLIGK(Dnp)D) (SEQ ID NO:37), which spans the trypsin-cleavage site (between R and S) of PAR-2 was synthesized, and used it in an in vitro assay for PAR-2 cleavage and activation. […] Alternaria's activity was abolished when aspartate protease(s) was removed from the extract by pepstatin A agarose (FIG. 9); pepstatin A is a highly specific inhibitor for aspartate protease. […] Thus, an aspartate protease(s) in Alternaria extract, but not a serine protease(s), may be involved in the activation of eosinophils through PAR-2. this observation was confirmed by using other aspartate protease inhibitors, including alkalo-thermophilic bacillus inhibitor (ATBI), nelfinavir, and ritonavir.

[3] = system: aspartate protease(s) in Alternaria extract; assay: Inhibition of PAR-2 cleavage activity of Alternaria extract; assay type: biochemical; details: extract pretreated with inhibitor
Excerpt: as §2, §3

PBMCs = assay: PBMC CD4+ T cell proliferation by CFSE labeling; assay type: cell-based, human; details: side-by-side experiment, day 7
[4] = system: PAR-2 peptide substrate (Abz-SKGRSLIGK(Dnp)D); assay: Fluorescent quenched PAR-2 peptide substrate cleavage assay; assay type: biochemical
Excerpt: as §2, §3

human eosinophils = assay: Eosinophil degranulation (EDN release) and activation by fungal extracts and proteins; assay type: cell-based; details: through PAR-2
Experimental: FIG. 5. Effects of fungi on eosinophil degranulation. Eosinophils were incubated with culture extracts of various fungi for 3 hours.
FIG. 21. Effects of Trichoderma xylanase on eosinophil degranulation (Panel A). Effects of Trichoderma xylanase on IL-5 production in mouse airways (Panel B). Panel A: Eosinophils were incubated with various concentrations of Trichoderma xylanase for 3 hours. EDN concentrations in the supernatants were measured by RIA as an indicator of degranulation. Panel B: Naive BALB/c mice were exposed intranasally to various doses of Trichoderma xylanase. After 12 hours, BAL fluids were collected and the concentrations of IL-5 were measured by ELISA. Mean±range, n=2.
FIG. 25. Partial characterization of Alternaria extract. A, Before incubation with eosinophils, aliquots of 100 μg/mL Alternaria and 10 ng/mL IL-5 were heated at 37, 56, or 100° C. for 30 min or were treated at 4° C. for 30 min. Eosinophils were incubated in duplicate with these treated stimuli for 3 hours at 37° C. […] The molecular weight calibration of the column is shown above the elution profile.
The following was performed to determine whether human eosinophils have an innate capacity to respond to environmental fungal organisms. Human eosinophils were incubated with extracts from common environmental airborne fungi.
as §1

SLIGKV (Synthetically generated oligonucleotide) [PAR-2 agonistic peptide]
eosinophils' calcium response to Alternaria extract (PAR-2): significantly inhibited

GLIVKS (Synthetically generated oligonucleotide) [control scramble peptide]
eosinophils' calcium response to Alternaria extract (PAR-2): showed no effects

Cc1c(O)cccc1C(=O)N[C@@H](CSc1ccccc1)[C@H](O)CN1C[C@H]2CCCC[C@H]2C[C@H]1C(=O)NC(C)(C)C [nelfinavir]
TNF-α-induced IL-6 production by BEAS-2B cells (BEAS-2B cells): not affected | eosinophil degranulation (EDN release) induced by Alternaria extract (eosinophils): confirmed

C[C@@H]1[C@H](O)[C@@H](C)/C=C/C=C/C=C/C=C/C=C/C=C/C=C/[C@H](O[C@@H]2O[C@H](C)[C@@H](O)[C@H](N)[C@@H]2O)C[C@@H]2O[C@](O)(C[C@@H](O)C[C@@H](O)[C@H](O)CC[C@@H](O)C[C@@H](O)CC(=O)O[C@H]1C)C[C@H](O)[C@H]2C(=O)O [amphotericin B]
no effect seen, patients (patients with CRS [1]; 13/51 patients): 25% | endoscopically disease free, patients (patients with CRS [1]; 18/51 patients): 35% | endoscopically improved by at least one stage, patients (patients with CRS [1]; additional 20/51 patients): 39% | improvement of sinusitis symptoms, patients (patients with CRS [1]; intranasal 20 mL of 100 μg/mL twice daily, mean 11 months, 38/51 patients): 75% | inflammatory mucosal thickening on CT scans pre- and post-treatment (patients with CRS [1]; n=12): significant reduction | safety of direct muco-administration (patients with CRS [1]; open-label pilot trial): safe | change in intranasal mucus levels of EDN (patients with CRS [2]; increase in placebo group, p=0.046): a reduction | changes in endoscopic scores compared to placebo (patients with CRS [2]; p=0.038): improved | mucosal thickening on CT scans compared to placebo (patients with CRS [2]; 20 mL 250 μg/mL each nostril twice daily, p=0.030): reduced

alkalo-thermophilic bacillus inhibitor [ATBI]
TNF-α-induced IL-6 production by BEAS-2B cells (BEAS-2B cells): not affected | eosinophil degranulation (EDN release) induced by Alternaria extract (eosinophils): confirmed

N=C(N)c1ccc(CS(=O)(=O)F)cc1 [APMSF]
PAR-2 peptide cleavage activity of trypsin (trypsin): inhibited the activity | PAR-2 peptide cleavage activity of Alternaria extract [3]: insensitive | eosinophil degranulation (EDN release) induced by Alternaria extract (eosinophils): not | eosinophil degranulation (EDN release) induced by Alternaria extract (eosinophils; listed as APSF): did not inhibit

tetanus toxoid: tetanus toxoid
CFSElow CD4+ cells (PBMCs; CRS patient): 43.2% | CFSElow CD4+ cells (PBMCs; normal individual): 47.9%

LSIGKV (Synthetically generated oligonucleotide) [PAR-2 antagonist]
inhibition of Alternaria-induced IL-6 production by BEAS-2B cells (BEAS-2B cells; treatment of Alternaria extract or PAR-2 antagonist): ~40% | eosinophils' calcium response to Alternaria extract (PAR-2): also inhibited | eosinophil degranulation (EDN release) induced by Alternaria extract (eosinophils): significantly and specifically inhibited | eosinophil degranulation (EDN release) induced by Alternaria extract (eosinophils; listed as PAR2-inhibitory peptide): inhibited | eosinophil degranulation induced by PAF (eosinophils; peptide 100 μM): not affected | eosinophil degranulation induced by PMA (eosinophils; peptide 100 μM): not affected

CC(C)c1nc(CN(C)C(=O)N[C@H](C(=O)N[C@@H](Cc2ccccc2)C[C@H](O)[C@H](Cc2ccccc2)NC(=O)OCc2cncs2)C(C)C)cs1 [ritonavir]
TNF-α-induced IL-6 production by BEAS-2B cells (BEAS-2B cells): not affected | eosinophil degranulation (EDN release) induced by Alternaria extract (eosinophils): confirmed

B1: trypsin: serine protease, positive control (protein, UniProt P00760 24-246, looked up)
Serine protease 1: IVGGYTCGANTVPYQVSLNSGYHFCGGSLINSQWVVSAAHCYKSGIQVRLGEDNINVVEGNEQFISASKSIVHPSYNSNTLNNDIMLIKLKSAASLNSRVASISLPTSCASAGTQCLISGWGNTKSSGTSYPDVLKCLKAPILSDSSCKSAYPGQITSNMFCAGYLEGGKDSCQGDSGGPVVCSGKLQGIVSWGSGCAQKNKPGVYTKVCNYVSWIKQTIASN
cleavage of PAR-2 peptide substrate [4]: clearly cleaved | activation of human eosinophils by proteases (human eosinophils): activated
